Measurements reported in US20230270721A1, “INHIBITION OF BAX-MEDIATED CELL DEATH BY ELTROMBOPAG” (Albert Einstein College of Medicine, priority 2020, published 2023).

Columns and labels:
BAX-4C R134E R145E = molecular target: T1, BAX-4C R134E R145E (Homo sapiens, UniProt Q07812, C126S/C62S/R134E/R145E/S4C); experiment: Microscale thermophoresis (MST) direct binding, double mutant; conditions: double mutant versus wild type BAX-4C
T1 construct: Human full-length (1-192) wild-type BAX (Q07812); made in house; host or cells: E. coli BL21 (DE3) CodonPlus (DE3)-RIPL
T1 sequence (Q07812 whole entry S4C/C62S/C126S/R134E/R145E): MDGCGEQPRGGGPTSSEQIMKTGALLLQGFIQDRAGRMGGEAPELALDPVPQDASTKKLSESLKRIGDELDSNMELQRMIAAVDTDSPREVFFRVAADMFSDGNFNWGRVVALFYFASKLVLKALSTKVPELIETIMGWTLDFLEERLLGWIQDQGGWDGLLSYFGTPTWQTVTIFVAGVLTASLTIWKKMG
Protocol: (§1) Recombinant BAX C62S-C126S-S5C (4C), previously established for evaluating BAX (Garner, T.P., et al. Nat Chem Biol 15, 322-330 (2019)) binding compounds with MST, or BAX C62S-C126S-S5C-R134E-R145E (R134E-R145E-4C) was labeled at cysteine using the Monolith Protein Labeling Kit Red Maleimide (NanoTemper Technologies) according to the instructions of the manufacturer (Garner, T.P., et al. Nat Chem Biol 15, 322-330 (2019)). Briefly, 10 µM protein was incubated with 0.9 equivalents of dye in MST buffer (100 mM potassium phosphate, pH 7.4, 150 mM NaCI) in the dark at room temperature (22-25° C.) for 1 hr. Unreacted dye was quenched using 5 mM DTT and removed using the manufacturer-provided buffer exchange column. […] Samples were loaded into standard glass capillaries (Monolith NT.155 Capillaries) and analyzed by MST using a Monolith NT.115 Blue/Red, LED power and IR laser power of 80%. Fraction bound and error was generated by NanoTemper software (MO.Affinity Analysis), and KD values were determined using GraphPad Prism nonlinear fit four-parameter agonist versus response with restraints for 0 and 1 fraction bound.
With this known, the EO docking poses were reevaluated, and the top pose featuring an ionic interaction between the EO-carboxylate and sidechain of R145 was analyzed (FIGS. 2E, 2F, and 2G). […]

BAX R134E R145E = molecular target: T2, BAX R134E R145E (Homo sapiens, UniProt Q07812, R134E/R145E); experiment: Liposomal permeabilization assay, double mutant; assay type: biochemical; conditions: 250 nM BAX and 5 nM tBID; read-out: IC50, inhibition of liposomal release
T2 construct: Human full-length (1-192) wild-type BAX (Q07812); made in house; host or cells: E. coli BL21 (DE3) CodonPlus (DE3)-RIPL
T2 sequence (Q07812 whole entry R134E/R145E): as the sequence (Q07812 whole entry S4C/C62S/C126S/R134E/R145E) above, with C4S, S62C, S126C counted along it
Protocol: Lipids (Avanti Polar Lipids) at the following ratio, phosphatidylcholine 48%, phosphatidylinositol 10%, dioleoyl phosphatidylserine 10%, phosphatidylethanolamine, 28%, and tetraoleoyl cardiolipin 4%, were mixed in a total of 1 mg, dried and resuspended in 10 mM HEPES, pH 7, 200 mM KCI, and 5 mM MgCl2 with 12.5 mM 8-aminonaphthalene-1,3,6-trisulfonic acid (ANTS) dye and 45 mM p-xylene-bis-pyridinium bromide (DPX) quencher (Molecular Probes) using a water bath sonicator. Liposomes were formed by extrusion of the suspension using Avanti Mini-Extruder (Cat # 610000) with polycarbonate membranes of 0.1 µm pore size (Avanti Polar Lipids). […] ANTS/DPX release was quantified based on the increase in fluorescence intensity that occurs when the ANTS fluorophore is separated from the DPX quencher upon release from the liposomes into solution. Fluorescence (λex = 355 nm and λem = 520 nm) was measured at 1 minute intervals at room temperature (22-25° C.) indicated using a Tecan Infinite M1000 plate reader. In the case of heat activation, reactions were set up as described in the absence of tBID or BIM, and experiments were recorded at 42° C. The percentage release of ANTS/DPX at any given time point was calculated as percentage release=((F-F0)/(F100-F0))(100), where F0 and F100 are baseline and maximal fluorescence, respectively. […]

BAX-4C = molecular target: T3, BAX-4C (Homo sapiens, UniProt Q07812, C126S/C62S/S4C); experiment: Microscale thermophoresis (MST) direct binding; conditions: 50 nM labeled BAX; read-out: dissociation constant KD
T3 construct: Human full-length (1-192) wild-type BAX (Q07812); made in house; host or cells: E. coli BL21 (DE3) CodonPlus (DE3)-RIPL
T3 sequence (Q07812 whole entry S4C/C62S/C126S): as the sequence (Q07812 whole entry S4C/C62S/C126S/R134E/R145E) above, with E134R, E145R counted along it
Protocol: as §1, with “hr.” for “hr. Unreacted dye was quenched using 5 mM DTT and removed using the manufacturer-provided buffer exchange column.”
To test this hypothesis, a competitive fluorescence polarization assay (FPA) (Gavathiotis, E., et al. Nat Chem Biol 8, 639-645 (2012)) based on the interaction between BAX and fluorescently-labeled stapled BIM-BH3 peptide (FITC-BIM-SAHB) was used (Gavathiotis, E., et al. Nature 455, 1076-1081 (2008)). […]

BAX = molecular target: T4, BAX (Homo sapiens, UniProt Q07812); experiment: BAX conformation change assay using anti-6A7 immunoprecipitation; assay type: biochemical; conditions: BAX 10 µM, 4 equivalents BIM-BH3, 5 or 10 equivalents EO
T4 construct: Human full-length (1-192) wild-type BAX (Q07812); made in house; host or cells: E. coli BL21 (DE3) CodonPlus (DE3)-RIPL
T4 sequence (Q07812 whole entry): as the sequence (Q07812 whole entry S4C/C62S/C126S/R134E/R145E) above, with C4S, S62C, S126C, E134R, E145R counted along it
Protocol: Exposure of the 6A7 epitope of BAX was assessed by immunoprecipitation with a 6A7-domain-specific antibody purchased from Santa Cruz (SC-23959). Protein G beads (50 µL, Santa Cruz) were washed three times with 3% BSA in PBS and incubated with 15 µL 6A7 antibody at 4° C. for 1 hr. Recombinant full-length BAX (10 µM) was incubated with 4 equivalents of BIM-BH3 peptide alone and in the presence of 5 or 10 equivalents of EO for 15 min at room temperature. Incubation of full-length recombinant BAX with 0.1% Triton X served as a positive control for exposure of the 6A7 epitope. After incubation, 10 µL of each reaction was transferred to the protein G beads pre-loaded with the anti-6A7 antibody, and 1 µL was reserved as a loading control. After 90 minutes of incubation at 4° C. beads were collected and washed three times with […] of 3% BSA in PBS and solubilized with 25 µL LDS/DTT loading buffer. Samples were resolved by SDS-PAGE electrophoresis and western blot analysis with an anti-BAX yth-2D2 antibody (Invitrogen).
Prior to permeabilizing membranes, activated BAX must first translocate to the membrane (Lovell, J. F. et al. Cell 135, 1074-1084, (2008)). To explore this earlier step in BAX activation, an NBD-fluorescence-based translocation assay was used. […]

**Q.** How did the “affinity as determined by MST” value (BAX-4C R134E R145E) turn out when `CC1=NN(c2ccc(C)c(C)c2)C(=O)/C1=N\Nc1cccc(-c2cccc(C(=O)O)c2)c1O` [EO, eltrombopag] was run?
**A.** markedly reduced affinity

**Q.** And the IC50 (BAX R134E R145E)?
**A.** > 10000 nM

**Q.** And the Kd (BAX-4C)?
**A.** 143 nM

**Q.** What about the “BIM-BH3 induced 6A7 epitope exposure” value (BAX) of the same compound?
**A.** inhibited
